Molecular target: T1, human α2A adrenergic receptor (Homo sapiens, UniProt P08913)
T1 construct: expressed in transfected cells; host or cells: CHO (Chinese hamster ovary) cells
T1 sequence (P08913 1-465): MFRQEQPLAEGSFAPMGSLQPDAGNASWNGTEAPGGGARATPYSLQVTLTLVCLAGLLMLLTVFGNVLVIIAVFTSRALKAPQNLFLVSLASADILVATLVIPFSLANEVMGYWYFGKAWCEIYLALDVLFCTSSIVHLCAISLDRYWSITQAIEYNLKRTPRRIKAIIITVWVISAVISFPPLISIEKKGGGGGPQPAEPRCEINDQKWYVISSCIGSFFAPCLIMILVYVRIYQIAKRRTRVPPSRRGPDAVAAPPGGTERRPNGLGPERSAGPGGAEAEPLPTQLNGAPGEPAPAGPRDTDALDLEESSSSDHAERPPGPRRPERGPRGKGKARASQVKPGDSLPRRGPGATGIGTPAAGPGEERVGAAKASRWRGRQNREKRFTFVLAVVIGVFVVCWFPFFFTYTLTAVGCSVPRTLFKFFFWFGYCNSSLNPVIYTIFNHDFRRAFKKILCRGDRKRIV
Test: functional α2A adrenergic receptor antagonism assay in CHO cells (morphological response, versus agonist UK-14304)
Format: cell-based
Details: for inhibition at 10 µM: CHO, 100 minus % maximum agonist activity; for % Maximum Agonist Activity (percentage of maximum agonist activity induced by UK-14304): CHO cells expressing human α2A receptor, reading 6 minutes after addition
Protocol: The functional α2A adrenergic receptor antagonism assay was carried out in a platform in which the morphological response of CHO (Chinese hamster ovary) cells expressing α2A receptors was assessed. The functional assay was performed using as test items the (R)-pirlindole and the (rac)-pirlindole.
The CHO cells, expressing the human α2A adrenergic receptor were plated the day before the experiment in an adequate culture medium. The compounds were added to the wells and readings were taken 6 minutes later. Responses from the samples were compared to control responses to assess agonist or antagonist activity. The percentage of maximal activity (% Maximum Activity) translates the percentage of agonist activity induced by the α2A agonist, UK-14304 (5-Bromo-N-(2-imidazolin-2-yl)-6-quinoxalinamine, 5-Bromo-N-(4,5-dihydro-1H-imidazol-2-yl)-6-quinoxalinamine, brimonidine) commercialized by the company Sigma-Aldrich.

Compound	inhibition at 10 µM (test compound 10 μM) [%]	% Maximum Agonist Activity (percentage of maximum agonist activity induced by UK-14304) (test compound 1 μM) [%]	% Maximum Agonist Activity (percentage of maximum agonist activity induced by UK-14304) (test compound 5 μM) [%]	% Maximum Agonist Activity (percentage of maximum agonist activity induced by UK-14304) (test compound 10 μM) [%]	antagonist activity on α2A adrenergic receptors, times less than (R)-pirlindole (10 μM, ratio of inhibition versus (R)-pirlindole) [times]
Cc1ccc2c(c1)c1c3n2CCN[C@@H]3CCC1 [(R)-pirlindole]	40.3	107.76	87.37	59.72	–
Cc1ccc2c(c1)c1c3n2CCNC3CCC1 (racemic) [(rac)-pirlindole, 2,3,3a,4,5,6-hexahydro-8 methyl-1H-pyrazino [3,2,1-j, k] carbazole]	11	98.47	96.50	89.02	~4

From patent US10533012B2, “(R)-pirlindole and its pharmaceutically acceptable salts for use in medicine” (TECNIMEDE SOCIEDADE TECNICO-MEDICINAL S.A., priority 2014, dated 2020)
